This is an account of results in patent publication US12083109B2, “Neurokinin antagonists and uses thereof” (California Institute of Technology, priority 2017, dated 2024).

Test [1] concerns the target T1, Nk3R (Mus musculus, UniProt P47937).
T1 sequence (P47937 1-452): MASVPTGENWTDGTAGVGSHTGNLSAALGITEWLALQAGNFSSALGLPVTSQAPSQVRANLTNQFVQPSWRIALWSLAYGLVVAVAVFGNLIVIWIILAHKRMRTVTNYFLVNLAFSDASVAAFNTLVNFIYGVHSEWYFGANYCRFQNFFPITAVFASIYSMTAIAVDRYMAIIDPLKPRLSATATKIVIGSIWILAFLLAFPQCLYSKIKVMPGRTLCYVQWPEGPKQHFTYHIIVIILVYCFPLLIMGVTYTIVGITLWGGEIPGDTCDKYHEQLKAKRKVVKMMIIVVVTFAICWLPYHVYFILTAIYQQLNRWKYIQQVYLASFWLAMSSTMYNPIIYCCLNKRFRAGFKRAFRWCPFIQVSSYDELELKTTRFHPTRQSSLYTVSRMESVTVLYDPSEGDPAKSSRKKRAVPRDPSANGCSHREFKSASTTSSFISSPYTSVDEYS
As to the kind of experiment: Resident intruder assay (aggression), osanetant. The class given is in vivo. Also on record: from tissue; host or cells: Living mice (wild-type C57Bl6/N males, Charles River). The procedure: Testing for aggression using the resident intruder assay (Blanchard et al., 2003; incorporated by reference in its entirety) was performed as previously described (Hong et al., 2015; Hong et al., 2014; Lee et al., 2014; incorporated by reference in their entirety). Briefly, experimental mice (“residents”) were transported in their homecage to a novel behavior testing room (cagemates in group housed mice were removed from the homecage prior to transport for this and all other behavioral tests), where they acclimated for 5-15 minutes. Homecages were then slotted into a customized behavioral chamber lit with a surround panel of infrared lights and equipped with two synchronized infrared video cameras (Pointgrey) placed at 90-degree angles from each other to allow for simultaneous behavior recording with a front and top view. Synchronized video was acquired using Hunter 4.0 software (custom, Pietro Perona lab, Caltech). Following a two-minute baseline period, an unfamiliar male BALB/c mouse (“intruder”) was placed in the homecage of the resident for 10 minutes and mice were allowed to freely interact. Group housed BALB/c males were used as intruders because they are a relatively submissive strain, thereby reducing any intruder-initiated fighting. Behavior videos were hand-annotated by an observer blind to experimental conditions (Behavior Annotator, Piotr's MATLAB toolbox; http://vision.ucsd.edu/˜pdollar/toolbox/doc/). Fighting bouts were scored on a frame-by-frame basis and were defined as a frame during which the resident male was engaged in an episode of biting or intense aggressive behavior immediately surrounding a biting episode. Annotation files were then batch analyzed for behavior, including number of fighting bouts, using in-house customized programs in MATLAB (A. Kennedy, Caltech).
(§1) Mice were administered the Nk3R antagonist osanetant (Axon Medchem, Axon 1533) either systemically or intra-brain region. Osanctant was dissolved in saline with 0.1% Tween 20 (vehicle). For systemic administration mice received an intraperitoneal (i.p.) injection (5 mg/kg) 20 minutes prior to behavioral testing. For microinfusions, guide cannulas were removed from mice and replaced with injector cannulas (Plastics One), which protruded 0.5 mm from the tip of the guide cannula. Injectors were attached to 5 μl Hamilton syringes with PE tubing (Plastics One) and mounted on a microinfusion pump (Harvard Apparatus) for controlled infusion of osanetant (0.3 μl vehicle with 375 ng dose per site injected over 6 minutes). For experiments using systemic administration of clozapine-N-oxide (CNO), CNO (Enzo Life Sciences-Biomol, BML-NS105-0005) was dissolved in saline (9 g/L NaCl) and injected (i.p.) at 5 mg/kg for hM4DREADD silencing or 2 mg/kg for hM3DREADD activation 20 minutes prior to behavioral testing. CNO was also administered chronically in drinking water (0.5 mg CNO/100 ml water).

The target in test [2] is T1, Nk3R. As to the kind of experiment: Looming disk assay (freezing, tail rattles, latency to orient), osanetant. In kind it is in vivo. Details: from tissue; host or cells: Living mice (wild-type C57Bl6/N males, Charles River). The following applies: for SIS-induced increased tail rattling (looming disk assay) / SIS-induced persistent (post) freezing to looming disk: SIS mice; for SIS-induced increased tail rattling (looming disk assay): acute systemic osanetant; for acute (and thereby persistent) freezing to innate threatening stimulus (looming disk): osanetant injection into CeA. The procedure:
Freezing behavior to presentation of an overhead looming disk proceeded as previously described (Kunwar et al., 2015; Yilmaz and Meister, 2013; incorporated by reference in their entirety). Briefly, mice were transported to a novel behavioral testing room. After 5 minutes of acclimation, mice were placed inside a novel, custom-built open top Plexiglas arena (48×48×30 cm) covered with a flat screen monitor placed directly above and with illumination provided by infrared LEDs (Marubeni). Mice were given a 5 minute baseline period in the arena, after which entry into the center of the arena triggered presentation of a single, 10 second overhead looming disk stimulus (comprised of a single looming disk presentation 0.5 seconds in duration, which was repeated 10 times with an inter-stimulus interval of 0.5 seconds). The stimulus was controlled by custom MATLAB code (M. Meister, Caltech) run on a dedicated computer in an adjacent room. Mice remained in the area for an additional 2 minutes before being transported back. Behavior was recorded using a video recorder attached to a laptop equipped with video capture software (Corel VideoStudio Pro). Acute freezing behavior to the looming disk (“during”) as well as in the 30 seconds following the last disk (“post”) were scored manually (Behavior Annotator, MATLAB) by an observer blind to environmental conditions.
as §1

[3] abbreviates: osanetant daily during two-week isolation, tested off-drug.
Where [4] appears, read: osanetant microinfusion into DMH.

Entries after “also recorded” stand apart in the source; their conditions may differ.

For `CC(=O)N(C)C1(c2ccccc2)CCN(CCC[C@]2(c3ccc(Cl)c(Cl)c3)CCCN(C(=O)c3ccccc3)C2)CC1` [osanetant, N-(1-{3-[(3R)-1-benzoyl-3-(3,4-dichlorophenyl)piperidin-3-yl]propyl}-4-phenylpiperidin-4-yl)-N-methylacetamide], the “aggression promoted by sexual experience” value at Nk3R [1] (2 weeks co-habitation with a female, no isolation, systemic osanetant) is on record as “had no effect”. The SIS-enhanced aggression entry is recorded as “blocked” at Nk3R [1] (SIS mice (2 weeks isolation), osanetant 5 mg/kg i.p. 20 min before test); “strongly reduced” on Nk3R [1] (SIS mice (2 weeks isolation), osanetant 5 mg/kg i.p. 20 min before test, listed as Osanetant); “prevented” on Nk3R [1] (setting [3]). Besides, on Nk3R [1] (osanetant injection into CeA), the aggression entry is given as “unaffected”. Further, the SIS-induced aggression entry is “abolished” on Nk3R [1] (setting [4]); “selectively blocked” at Nk3R [1] (osanetant microinfusion into DMH, listed as Osanetant); “no effect” on Nk3R [1] (osanetant microinfusion into dBNSTa). Moreover, the “SIS-induced increased tail rattling (looming disk assay)” value on Nk3R [2] is recorded as “attenuated”; at Nk3R [2] (listed as Osanetant) it was “blocked”. The “SIS-induced persistent (post) freezing to looming disk” value was “blocked” at Nk3R [2] (osanetant 5 mg/kg i.p. 20 min before test) and “attenuated” at Nk3R [2] (osanetant 5 mg/kg i.p. 20 min before test, listed as Osanetant). The “freezing during presentation of looming disk (acute)” value at Nk3R [2] (osanetant 5 mg/kg i.p. 20 min before test, between groups) is listed as “no significant differences”. The “persistent freezing to looming disk” value on Nk3R [2] (setting [3]) is recorded as “prevented”. In addition, the “acute (and thereby persistent) freezing to innate threatening stimulus (looming disk)” value at Nk3R [2] is “reduced”; on Nk3R [2] (listed as Osanetant), “selectively blocked”. For the same molecule, the “SIS-induced persistent freezing to looming disk” value at Nk3R [2] (osanetant microinfusion into ACC or striatum) was “failed to yield significant effects; also recorded: No significant effects”; on Nk3R [2] (osanetant microinfusion into dBNSTa, 375 ng per site, 20 min before test) it was “selectively inhibited”; at Nk3R [2] (osanetant microinfusion into dBNSTa, 375 ng per site, 20 min before test, listed as Osanetant) it was “selectively blocked”. Besides, the “persistent responses to looming stimulus” value at Nk3R [2] (setting [4]) is reported as “had no effect”.
